The record followed here is the NIST ThermoML archive (doi:10.1021/je030161t).

For series [1] the following is noted: 298.15 K; 101.33 kPa; Liquid; Vibrating tube method.
The nature of series [2]: excess molar enthalpy (molar enthalpy of mixing); xn = mol fraction of the nth substance listed. As to conditions: 298.15 K, 101.3 kPa, Liquid, Flow calorimetry.

Numbers after ± are expanded uncertainties.

Consider `CCC(C)CC` [3-methylpentane], for which the mass density in series [1] stood at 659.94 ± 0.4 kg/m3.

Take `CCC(C)CC` [3-methylpentane] + CC(C)OC(C)C: the excess molar enthalpy came to 0.0101 ± 0.000263 kcal/mol in series [2] (x2 = 0.05); 0.0188 ± 0.000335 kcal/mol in series [2] (x2 = 0.1); 0.0262 ± 0.000382 kcal/mol in series [2] (x2 = 0.1499); 0.0325 ± 0.00043 kcal/mol in series [2] (x2 = 0.2); 0.0372 ± 0.000478 kcal/mol in series [2] (x2 = 0.2503); 0.041 ± 0.000502 kcal/mol in series [2] (x2 = 0.2998). Further, the excess molar enthalpy turned out to be 0.0439 ± 0.000526 kcal/mol in series [2] (x2 = 0.3501); 0.046 ± 0.00055 kcal/mol in series [2] (x2 = 0.3997); 0.0472 ± 0.00055 kcal/mol in series [2] (x2 = 0.45); 0.0472 ± 0.00055 kcal/mol in series [2] (x2 = 0.5003); 0.0463 ± 0.00055 kcal/mol in series [2] (x2 = 0.5502); 0.0448 ± 0.000526 kcal/mol in series [2] (x2 = 0.5998). Moreover, the excess molar enthalpy in series [2] (x2 = 0.65) stood at 0.0422 ± 0.000526 kcal/mol; in series [2] (x2 = 0.7002), 0.0387 ± 0.000478 kcal/mol; in series [2] (x2 = 0.7501) it was 0.0343 ± 0.000454 kcal/mol; in series [2] (x2 = 0.8003), 0.029 ± 0.000406 kcal/mol; in series [2] (x2 = 0.85), 0.0224 ± 0.000359 kcal/mol; in series [2] (x2 = 0.9) it was 0.0158 ± 0.000311 kcal/mol. Further, in series [2] (x2 = 0.95), the excess molar enthalpy came out at 0.00855 ± 0.000263 kcal/mol.

Consider `CCCCCCCCCC` [decane], for which, in series [1], the mass density worked out at 726.3 ± 0.41 kg/m3.

`CC(C)OC(C)C` [diisopropyl ether]: in series [1], the mass density is given as 718.7 ± 0.41 kg/m3.

With `CCCCCCCC` [octane], the mass density in series [1] is 698.72 ± 0.4 kg/m3.

Broadly, the mass density is mass per unit of volume.
